Ends that are not written are not given here.
Key:
SD rats = experiment: Healing of acute mechanical skin injuries in rats; type: in vivo, rat; details: for Wound healing rate: rats, acute mechanical injury, topical once a day, polypeptide 8 μg/cm^2, GeneTime 40 IU/cm^2, Mean ± SD, n = 6
Experimental: Experimental animals: SD male rats, SPF grade, 6 weeks old, weighing 180-220 g, from Beijing Vital River Laboratory Animal Technology Co., Ltd.; animal license number: SCXK (Beijing) 2016-0006; and certification number: NO.110011210104746538.
Experimental method: SPF grade SD rats were housed in clean and sterilized cages, and were given water and feeds and padding replacement at regular intervals every day. The cultivation was kept at a temperature of 20-26° C. with a humidity of 40%-70%. The rats were kept for one week to adapt to the environment. According to the random grouping method, the animals were divided into 3 groups: model control group (normal saline), GeneTime group (40 IU/cm^2, recombinant human epidermal growth factor topical solution, from Shenzhen Watsin Genetech Ltd.), and subject polypeptide group (8 μg/cm^2), with 6 animals in each group. After the rats were successfully anesthetized by intraperitoneal injection of 3% pentobarbital sodium, the hair at 1 cm from the expected wound edge was cut off, the expected wound area was first disinfected with iodophor, then locally disinfected with 75% alcohol, and a round full layer of skin wound with a diameter of 1.5 cm was made at the middle of the ear line down to 4 cm below the back, near the cervical side, with the spine as the middle line, as deep as the muscular layer. The same sized rubber ring was used to fix the surrounding skin to form an animal model of acute mechanical injury. After modeling, the rats' wounds were exposed to the environment and fed in individual cages. Upon changing dressings, debridement was first performed with iodophor, and then the wound was washed with a sterile normal saline and wiped to dryness. Rats in each group were given 40 μL of corresponding drug solution by locally applying to the wound once a day periodically. On Days 0, 3, 7, 10 and 14 of administration, the wounds of each group of rats were photographed, the areas of the wounds were calculated with image analysis software (Image J), and the wound healing rates were calculated according to the formula.

[1] = tested on: Wild-type AB-line zebrafish; experiment: Tissue regeneration in zebrafish with caudal fin damage; type: in vivo; details: 250, 500 and 1000 μg/mL in water, 28° C., 3 days; vs model control; FIG. 5
Experimental: Experimental animals: Wild-type AB-line zebrafish, raised in water for culturing fish at 28° C. (water quality: 200 mg of instant dissolving sea salt being added to every 1 L of water made by reverse osmosis, with a conductivity of 450-550 μS/cm, a pH of 6.5-8.5 and a hardness of 50-100 mg/L CaCO3), at the age of 3 days post fertilization (3 dpf). The animals were provided by the fish breeding center of Hangzhou Hunter Biotechnology Co., Ltd. with the experimental animal use license number of SYXK (Zhejiang) 2012-0171, and the breeding management complied with the requirements of international AAALAC certification (certification number: 001458).
Experimental method: 3 dpf wild AB-line zebrafish were randomly selected, and the caudal fins of zebrafish was excised to establish a model of caudal fin damage in zebrafish. […] Treatment was performed at 28° C. for 3 days, 10 zebrafish were randomly selected in each experimental group and placed under an anatomical microscope to take photos, the data were analyzed and collected using NIS-Elements D 3.20 advanced image processing software, the regeneration areas of caudal fins of zebrafish were analyzed, and the statistical analysis results of this index were used to evaluate the efficacy of the samples of promoting tissue regeneration.

[2] = tested on: STZ-induced diabetic rats; experiment: Healing of skin ulcer in streptozotocin (STZ)-induced diabetic rats; type: in vivo, rat; details: for Wound healing rates of diabetic rats: Mean ± SD, n = 15
Experimental: Experimental animals: After SPF grade male healthy SD rats (weighing 180-200 g) were fed with high-fat and high-sugar diet for 2 weeks and fasted for 6 hours, each rat was rapidly injected with an STZ solution (50 mg kg^−1) intraperitoneally at one time, and 48 hours later, the random blood glucose values were >16.7 mmol/L twice, indicating the successful establishment of type II diabetic rat model. Experimental animals were purchased from Beijing Vital River Laboratory Animal Technology Co., Ltd., with the experimental animal quality certification number of SCXK (Beijing) 2017-0033, and the experimental animal use license number of SCXK (Beijing) 2017-0033.
Experimental method: 90 diabetic rats were selected and randomly divided into 6 groups with 15 rats in each group, namely, model control group (normal saline), high-dose polypeptide group (30 μg/cm^2), medium-dose polypeptide group (10 μg/cm^2), and low-dose polypeptide group (3 μg/cm^2), GeneTime group (40 IU/cm^2, recombinant human epidermal growth factor topical solution, from Shenzhen Watsin Genetech Ltd.), and Kangfuxin Ye group (36 μL/cm^2, Kangfuxinye, from SICHUAN GOODDOCTOR PANXI PHARMACEUTICAL CO., LTD.). After each experimental rat was anesthetized by intraperitoneal injection of 2% pentobarbital sodium (0.2 mL/100 g), a 2 cm^2 full-layer skin defect wound was prepared at each of both sides of the back spine, and a rubber ring with a diameter of 2.3 cm was stitched at the outer edge of the wound. After hemostasis of the wound, local drug therapy at the wound was carried out by group. Except that the Kangfuxin Ye group was administered 2 times/day, other groups were administered once a day, with a dosed volume of 72 μL/wound each time, for 14 consecutive days. After the administration, the wound was covered with a sterile vaseline gauze (5 cm*5 cm), and bandaged with multi-layer sterile gauzes. After the wound surgery, the wound was photographed, and the wound area was recorded as the baseline value (the wound was recorded as Day0). During the administration period, the wound areas were photographed and measured 3 times a week, and the granulation tissue growth and healing of wound in each group were observed every day.

PAAEPVPL [polypeptide]
Wound healing rate (SD rats; Day 0 (baseline)): 0.00 ± 0.00% | Wound healing rate (SD rats; Day 3): −23.77 ± 6.16% | Wound healing rate (SD rats; Day 7): −10.78 ± 7.90% | Wound healing rate (SD rats; Day 10): 18.90 ± 17.63% | Wound healing after mechanical skin injury in rats (statement in words) (SD rats; Day 14, 8 μg/cm^2, vs model control): significant promotion of wound healing | Wound healing rate (SD rats; Day 14): 88.42 ± 4.57 % | Zebrafish caudal fin regeneration (regeneration area) [1]: significantly promoting tissue regeneration | Formation rate of new granulation tissues ([2]; 3rd day after injury, low-, medium- and high-dose (3, 10, 30 μg/cm^2), vs model control, FIG. 8): promoted the growth rate of new granulation tissue compared to the model control group with significant differences | Wound healing rates of diabetic rats ([2]; Day 0 (baseline), high-dose 30 μg/cm^2, topical once a day): 0.00 ± 0.00% | Wound healing rates of diabetic rats ([2]; Day 0 (baseline), low-dose 3 μg/cm^2, topical once a day): 0.00 ± 0.00% | Wound healing rates of diabetic rats ([2]; Day 0 (baseline), medium-dose 10 μg/cm^2, topical once a day): 0.00 ± 0.00% | Wound healing rates of diabetic rats ([2]; Day 3, high-dose 30 μg/cm^2, topical once a day): 6.82 ± 19.81% | Wound healing rates of diabetic rats ([2]; Day 3, low-dose 3 μg/cm^2, topical once a day): 3.05 ± 8.10% | Wound healing rates of diabetic rats ([2]; Day 3, medium-dose 10 μg/cm^2, topical once a day): 5.04 ± 9.31% | Wound healing rates of diabetic rats ([2]; Day 7, high-dose 30 μg/cm^2, topical once a day): 62.62 ± 12.24% | Wound healing rates of diabetic rats ([2]; Day 7, low-dose 3 μg/cm^2, topical once a day): 54.67 ± 18.10% | Wound healing rates of diabetic rats ([2]; Day 7, medium-dose 10 μg/cm^2, topical once a day): 57.57 ± 10.49% | Wound healing rates of diabetic rats ([2]; Day 10, high-dose 30 μg/cm^2, topical once a day): 88.49 ± 5.17 % | Wound healing rates of diabetic rats ([2]; Day 10, low-dose 3 μg/cm^2, topical once a day): 84.05 ± 10.21% | Wound healing rates of diabetic rats ([2]; Day 10, medium-dose 10 μg/cm^2, topical once a day): 84.26 ± 9.10% | Wound healing rates of diabetic rats ([2]; Day 12, high-dose 30 μg/cm^2, topical once a day): 98.39 ± 2.39% | Wound healing rates of diabetic rats ([2]; Day 12, low-dose 3 μg/cm^2, topical once a day): 95.92 ± 5.82% | Wound healing rates of diabetic rats ([2]; Day 12, medium-dose 10 μg/cm^2, topical once a day): 97.77 ± 3.71% | Wound healing rates of diabetic rats ([2]; Day 14, high-dose 30 μg/cm^2, topical once a day): 99.85 ± 0.77% | Wound healing rates of diabetic rats ([2]; Day 14, low-dose 3 μg/cm^2, topical once a day): 99.46 ± 1.46% | Wound healing rates of diabetic rats ([2]; Day 14, medium-dose 10 μg/cm^2, topical once a day): 99.85 ± 0.84% | Wound healing in diabetic rats (statement in words) ([2]; high-dose 30 μg/cm^2, vs model control, Day 10): significant healing promoting effect | Wound healing in diabetic rats (statement in words) ([2]; low and medium doses (3 and 10 μg/cm^2), Day 10, vs model control): tendency to promote the wound healing

Reference: patent US20250057910A1, “Application of Polypeptide in Preparation of Product for Preventing or Treating Skin Injury Diseases” (Sichuan Gooddoctor Panxi Pharmaceutical Co., Ltd., priority 2021, published 2025)
